Measurements: patent publication US7192722B2, “Phenethanolamine-derived haptens, immunogens, antibodies and conjugates” (Randox Laboratories, priority 2004, dated 2007)
Values after ≈ are worked out from the molar mass of the structure shown. Values joined by “and” are separate entries in the source; they are usually repeats but may differ in a detail not shown here. Equal entries are not always repeated.

Assays:
[1] = system: IgG fraction of the antiserum raised to immunogen A (hapten A-BSA); assay: Competitive ELISA for ractopamine, Example 22 a): antiserum to immunogen A, conjugate A (hapten A-HRP); format: binding, sheep; conditions: for % CR: cross-reactivity relative to ractopamine = 100%
Protocol: (§1) An aqueous solution of each immunogen was formulated with Freund's Complete Adjuvant (FCA) to form an emulsion consisting of 2 mg/ml immunogen in 50% (v/v) FCA. Three sheep were immunised with this emulsion (1° immunisation), 0.25 ml being subcutaneously injected at each of four sites in the flank of each animal. Subsequent immunizations (boosts) contained 1 mg/ml immunogen. All boosts were emulsified in 50% (v/v) Freund's Incomplete Adjuvant (FIA) and were administered in the same manner as the 1° immunisation, at monthly intervals for 1 year. Blood sampling took place 7 to 14 days after each boost. Each sample was processed to produce antiserum, which was further purified by caprylic acid and ammonium sulfate precipitation to yield an immunoglobulin G (IgG) fraction.
The appropriate antibody coating dilution was determined using standard ELISA checkerboard techniques. The plate was incubated for 2 hours at 37° C., washed 4 times with Tris buffered saline containing Tween 20 (TBST) and tapped dry. Standard solutions of ractopamine were prepared in TBST at 0, 0.05, 0.1, 0.5, 1, and 5 ng/ml, and 50 μl of each was added to the appropriate wells. […] The appropriate dilution of conjugate was also determined using standard ELISA checkerboard techniques. The plate was incubated at 37° C. for 2 hours. Excess unbound conjugate was removed by washing 6 times over a 10 minute period with TBST. 125 μl of tetramethylbenzidine (TMB) substrate solution was added to each well of the plate that was then incubated for 15 to 20 minutes in the dark at room temperature. The reaction was terminated by addition of 125 μl 0.2M H2SO4 to each well. The absorbance was then measured at 450 nm using a microtiter plate reader.
(§2) Employing each series of standards in the ractopamine competitive ELISAs, calibration curves were generated and these were used to determine the cross-reactivity of each immunoassay with these substances.

[2] = system: Shelver polyclonal antiserum (ractopamine-hemiglutarate-KLH); conditions: Shelver pAb, cited from earlier work; for % CR: relative to ractopamine = 100%
[3] = system: IgG fraction of the antiserum raised to immunogen C (hapten C-BSA); assay: Competitive ELISA for ractopamine, Example 22 b): antiserum to immunogen C, conjugate C (hapten C-HRP); format: binding, sheep; conditions: for % CR: cross-reactivity relative to ractopamine = 100%
Protocol: as §1
The same definitions apply for A450, B, B0 and IC50.
as §2

[4] = system: Shelver monoclonal antibody (5G10); conditions: Shelver mAb, cited from earlier work; for % CR: relative to ractopamine = 100%
[5] = system: IgG fraction of the antiserum raised to immunogen E (hapten E-BSA); assay: Competitive ELISA for ritodrine, Example 25: antiserum to immunogen E, conjugate E (hapten E-HRP); format: binding; conditions: for % CR: cross-reactivity relative to ritodrine = 100%
[6] = system: IgG fraction of the antiserum raised to immunogen D (hapten D-BSA); assay: Competitive ELISA for isoxsuprine, Example 24: antiserum to immunogen D, conjugate D (hapten D-HRP); format: binding; conditions: for % CR: cross-reactivity relative to isoxsuprine = 100%
[7] = system: Haasnoot antibody derived from a fenoterol derivative; conditions: cited from earlier work

Compound | % CR [1] [%] | IC50 CR [2] | % CR [2] [%] | % CR [3] [%] | IC50 CR [4] | % CR [4] [%] | further results
CC(C)NCC(O)c1ccc(O)c(O)c1 (racemic) [DL-Isoproterenol] | <0.16 | >100,000 ng/ml | <0.01 | <0.5 |  |  | 
CC(C)NC[C@H](O)c1ccc(O)c(O)c1 [(−) Isoproterenol] | <0.16 |  |  | <0.01 |  |  | 
CCCCNCC(O)c1ccc(O)cc1 (stereo not drawn) [Bamethane] | <0.16 | 2,900 ng/ml | 0.1 | <0.01 | 831 ng/mL (≈ 3.97 µM) | 0.3 | 
CC(C)NCC(O)c1ccc(N)c(C#N)c1 (stereo not drawn) [Cimaterol] | <0.16 |  |  | <0.01 |  |  | 
CC(C)(C)NCC(O)c1cc(Cl)c(N)c(Cl)c1 (stereo not drawn) [Clenbuterol] | <0.16 | >100,000 ng/ml | <0.01 | <0.01 |  | <0.1 | 
CC(CCc1ccc(O)cc1)NCCc1ccc(O)c(O)c1 (stereo not drawn) [Dobutamine] | 0.186 | 12.7 ng/mL (≈ 0.0421 µM) | 33 | <0.8 | 50.3 ng/mL (≈ 0.167 µM) | 5.3 | % CR ([1]; listed as dobutamine): 0.186% and < 0.8%; % CR [5]: <5.0%; % CR ([3]; listed as dobutamine): < 0.8%; % CR [6]: <0.1%
NCCc1ccc(O)c(O)c1 [Dopamine] | <0.16 |  |  | <0.01 |  |  | 
CC(Cc1ccc(O)cc1)NCC(O)c1cc(O)cc(O)c1 (stereo not drawn) [Fenoterol] | <0.16 | 310 ng/mL (≈ 1.02 µM) | 1.3 | <0.05 | 2,682 ng/ml | 0.1 | 
CC(COc1ccccc1)NC(C)C(O)c1ccc(O)cc1 (stereo not drawn) [Isoxsuprine] | <0.16 | 6,200 ng/ml | 0.1 | <0.6 | 1,391 ng/ml | 0.2 | % CR [5]: 20.2%; % CR [6]: 100%; % B/B0 ([6]; isoxsuprine 0.5 ng/ml): 31.6%; % B/B0 ([6]; isoxsuprine 1 ng/ml): 17.0%; % B/B0 ([6]; isoxsuprine 5 ng/ml): 6.7%; % B/B0 ([6]; isoxsuprine 10 ng/ml): 4.9%; % B/B0 ([6]; isoxsuprine 50 ng/ml): 1.5%; % B/B0 ([6]; isoxsuprine 100 ng/ml): 1.3%; % B/B0 ([6]; isoxsuprine 200 ng/ml): 0.9%
CC(C)(C)NCC(O)c1cc(Cl)c(N)c(C(F)(F)F)c1 (stereo not drawn) [Mabuterol] | <0.16 |  |  | <0.01 |  |  | 
CC(C)NCC(O)c1cc(O)cc(O)c1 (stereo not drawn) [Metaproterenol] | <0.16 | >100,000 ng/ml | <0.01 | <0.01 |  |  | 
CC(C)(C)NCC(O)c1ccc(O)c(CO)n1 (stereo not drawn) [Pirbuterol] | <0.16 |  |  | <0.05 |  |  | 
CC(CCc1ccc(O)cc1)NCC(O)c1ccc(O)cc1 (stereo not drawn) [Ractopamine] | 100 | 4.2 ng/mL (≈ 0.0139 µM) | 100 | 100 | 2.69 ng/mL (≈ 0.00893 µM) | 100 | % B/B0 ([1]; ractopamine 0.05 ng/ml): 53.5%; % B/B0 ([1]; ractopamine 0.1 ng/ml): 49.5%; % B/B0 ([1]; ractopamine 0.5 ng/ml): 23.7%; % B/B0 ([1]; ractopamine 1 ng/ml): 16.9%; % B/B0 ([1]; ractopamine 5 ng/ml): 6.33%; cross-reactivity [7]: 20%; % CR [5]: <0.5%; % B/B0 ([3]; ractopamine 0.025 ng/ml): 84%; % B/B0 ([3]; ractopamine 0.1 ng/ml): 65%; % B/B0 ([3]; ractopamine 0.25 ng/ml): 46%; % B/B0 ([3]; ractopamine 0.5 ng/ml): 34%; % B/B0 ([3]; ractopamine 1 ng/ml): 24%; % CR [6]: <0.1%
CC(NCCc1ccc(O)cc1)C(O)c1ccc(O)cc1 (stereo not drawn) [Ritodrine] | <0.16 | 577 ng/mL (≈ 2.01 µM) | 0.8 | <0.5 | 73.8 ng/mL (≈ 0.257 µM) | 3.6 | % CR [5]: 100%; % B/B0 ([5]; ritodrine 1 ng/ml): 92.0%; % B/B0 ([5]; ritodrine 5 ng/ml): 82.3%; % B/B0 ([5]; ritodrine 10 ng/ml): 80.2%; % B/B0 ([5]; ritodrine 50 ng/ml): 64.7%; % B/B0 ([5]; ritodrine 100 ng/ml): 55.9%; % B/B0 ([5]; ritodrine 500 ng/ml): 30.0%; % B/B0 ([5]; ritodrine 1000 ng/ml): 22.6%; % CR [6]: <0.1%
CC(C)(C)NCC(O)c1ccc(O)c(CO)c1 (stereo not drawn) [Salbutamol] | <0.16 | 79,000 ng/ml | <0.01 | <0.01 |  | <0.1 | 
OCc1cc(C(O)CNCCCCCCOCCCCc2ccccc2)ccc1O (stereo not drawn) [Salmeterol Xinafoate] | <0.16 | 1,800 ng/ml | 0.2 | <0.5 | 1519 ng/mL (≈ 3.66 µM) | 0.2 | 
CC(C)(C)NCC(O)c1cc(O)cc(O)c1 (stereo not drawn) [Terbutaline] | <0.16 |  |  | <0.01 |  |  | 
CC(C)(C)NCC(O)c1ccccc1Cl (stereo not drawn) [Tulobuterol] | <0.16 |  |  | <0.05 |  |  | 
Methyl Clenbuterol | <0.16 |  |  | <0.05 |  |  | 
